# Assay results: article PMC3082566, “PTB Domain-Directed Substrate Targeting in a Tyrosine Kinase from the Unicellular Choanoflagellate Monosiga brevicollis” (PLoS ONE, 2011)
# Assays:
# HMTK1 [1] = assay: Co-expression of HMTK1 with mammalian receptor tyrosine kinases: binding or phosphorylation; type: cell-based, Monosiga brevicollis; settings: data not shown
# [2] = target: SH2 binding substrate, spacer = 11 (…pYEEIG)
# [3] = target: Phe-containing PTB control substrate (…)
# [4] = target: PTB ligand-containing substrate (…pYATLG)
# HMTK1 [5] = assay: Phosphorylation of peptide substrates by purified HMTK1 (phosphocellulose paper assay); type: biochemical, Monosiga brevicollis; settings: 6 minutes at 30°C; for HMTK1 activity toward peptide (comparison of c-Src and Monosiga-derived peptides): 750 µM peptide, 400 nM HMTK1, pH 7.4, phosphocellulose paper assay, Fig. 2A
# Experimental: (§1) HMTK1 was expressed in Spodoptera frugiperda (Sf9) insect cells using the Bac-to-Bac system (Invitrogen). Sf9 cells (800 ml) were infected with HMTK1 baculovirus and harvested after three days. Cells were lysed in a French pressure cell, and His-tagged HMTK1 was purified using nickel-nitrilotriacetic acid resin (Qiagen), as described previously. Peak fractions were pooled and concentrated in an Amicon Ultrafiltration device (molecular weight cutoff: 30,000 daltons). The purified protein was stored in 40% glycerol at −20°C. The isolated PTB domain of HMTK1 was produced as a fusion with glutathione S-transferase (GST). E. coli cells (1 liter) expressing the GST fusion protein were lysed in a French pressure cell, and the GST-PTB protein was purified by chromatography on a glutathione-agarose column (Molecular Probes).
# Kinase assays were performed by two methods. Initial activity measurements were performed by the phosphocellulose paper binding assay. Reaction mixtures contained 20 mM Tris-HCl (pH 7.4), 10 mM MgCl2, 0.2 mM ATP, [γ-^32P]-ATP (30–50 cpm/pmol), and varying amounts of HMTK1 and peptide substrates. All peptide substrates were purified by high pressure liquid chromatography and characterized by mass spectrometry prior to use. […] Initial rate kinetic measurements on the PTB ligand-containing substrate ([…]pYATLG) and on the Phe-containing PTB control ([…]) were carried out using a continuous spectrophotometric assay. Reactions were performed at 30°C in a final volume of 50 µl. The reactions contained 100 mM Tris pH 7.4, 10 mM MgCl2, 2 mM ATP, 1.5 mM phosphoenolpyruvate, 90 units/ml of pyruvate kinase, 109 units/ml of lactate dehydrogenase, and 1.2 mg/ml of NADH. For determination of Km values, the enzyme concentrations were 0.3–0.5 µM and the peptide concentrations ranged from 0–700 µM. Kinetic constants were determined by nonlinear fitting to the [substrate] vs. velocity curves using GraphPad Prism 4.
# Figure 1 Monosiga brevicollis HMTK1 kinase. (A) Domain arrangement of HMTK1. (B) Amino acid sequence of the PTB-kinase HMTK1 construct used in this study. The HMD motif in the catalytic loop is underlined. (C) Tyrosine kinase activity of HMTK1. […] Reactions proceeded for 6 minutes at 30°C, and enzyme activity was measured using the phosphocellulose paper assay.
# Figure 2 Additional HMTK1 peptide phosphorylation assays. Reactions proceeded for 6 minutes at 30°C, and enzyme activity was measured using the phosphocellulose paper assay. […] (B) Phosphorylation of SH2-binding substrates containing various spacer lengths between the pY residue and the phosphorylatable tyrosine. The peptides are shown schematically, with the phosphorylation site in blue, the SH2-binding ligand (pYEEI) in red, and the number of intervening amino acids in a box. The sequences of the peptides are: […]pYEEIG (spacer = 11), […]pYEEIG (spacer = 7), and […]pYEEIG (spacer = 3); SH2 control substrate, […] (spacer = 11); substrate peptide, […]. Reactions contained 70 µM peptides. Error bars show standard deviation.
# MbSrc1 = settings: ref [13], [14]; cited from earlier work
# MbSrc4 = settings: ref [13], [14]; cited from earlier work
# HMTK1 [6] = assay: Phosphorylation of SH2-binding substrates with varying spacer lengths by HMTK1 (phosphocellulose paper assay); type: biochemical, Monosiga brevicollis; settings: 70 µM peptides; spacer of 11 residues; 6 minutes at 30°C; Fig. 2B
# Experimental: as §1
# Kinase assays were performed by two methods. Initial activity measurements were performed by the phosphocellulose paper binding assay. […] Kinetic constants were determined by nonlinear fitting to the [substrate] vs. velocity curves using GraphPad Prism 4.
# Figure 2 Additional HMTK1 peptide phosphorylation assays. Reactions proceeded for 6 minutes at 30°C, and enzyme activity was measured using the phosphocellulose paper assay. […]
# HMTK1 [7] = assay: Steady-state kinetics, continuous spectrophotometric assay; type: biochemical, Monosiga brevicollis; settings: HMTK1 0.3–0.5 µM; peptide 0–700 µM; 100 mM Tris pH 7.4, 10 mM MgCl2, 2 mM ATP; 30°C; nonlinear fitting
# Experimental: Kinase assays were performed by two methods. Initial activity measurements were performed by the phosphocellulose paper binding assay. Reaction mixtures contained 20 mM Tris-HCl (pH 7.4), 10 mM MgCl2, 0.2 mM ATP, [γ-^32P]-ATP (30–50 cpm/pmol), and varying amounts of HMTK1 and peptide substrates. All peptide substrates were purified by high pressure liquid chromatography and characterized by mass spectrometry prior to use. The following substrates were used: c-Src peptide, […]; MbSTAT peptide, […]; RTKB2 peptide 1, […]; RTKB2 peptide 2, […]; SH2 binding substrates (varying linker lengths), […]pYEEIG, […]pYEEIG, and […]pYEEIG; SH2 control substrate, […]. Initial rate kinetic measurements on the PTB ligand-containing substrate ([…]pYATLG) and on the Phe-containing PTB control ([…]) were carried out using a continuous spectrophotometric assay. Reactions were performed at 30°C in a final volume of 50 µl. The reactions contained 100 mM Tris pH 7.4, 10 mM MgCl2, 2 mM ATP, 1.5 mM phosphoenolpyruvate, 90 units/ml of pyruvate kinase, 109 units/ml of lactate dehydrogenase, and 1.2 mg/ml of NADH. For determination of Km values, the enzyme concentrations were 0.3–0.5 µM and the peptide concentrations ranged from 0–700 µM. Kinetic constants were determined by nonlinear fitting to the [substrate] vs. velocity curves using GraphPad Prism 4.
# HMTK1 [8] = assay: Binding of purified HMTK1 to immobilized PTB ligand peptides; design: species or system Monosiga brevicollis; settings: 6.6 µg HMTK1; peptide on Affi-Gel resin; 1 hour at 4°C; anti-His6 Western; Fig. 5A
# Experimental: The PTB ligand-containing peptide, Phe-containing PTB control, and pYEEI peptide (EPQpYEEIG) were linked to Affi-Gel 15 resin (Bio-Rad) following the manufacturer's protocols. Purified HMTK1 or the isolated PTB domain were incubated for 1 hour at 4°C with the immobilized peptides. After binding, the beads were washed 4 times with 1 ml of binding buffer (50 mM Tris-HCl pH 7.5, 5 mM EDTA, 100 mM NaCl, 0.1% Triton X-100, 1 mM DTT, 0.5 mM Na3VO4). Bound proteins were eluted with SDS-PAGE loading buffer, separated by 10% SDS-PAGE, and visualized either by Coomassie blue staining or by Western blotting.
# Figure 5 Substrate targeting by PTB ligand. (A) Purified HMTK1 (6.6 µg) was incubated with PTB ligand-containing substrate ([…]pYATLG), PTB control substrate ([…]), pYEEI peptide, or control resin in final volumes of 60 µl. After washing, bound proteins were eluted with SDS-PAGE sample buffer and analyzed by Western blotting with anti-His6-tag antibody. (B) The kinase activity of HMTK1 (300 nM) toward the PTB ligand-containing substrate or PTB control substrate (shown schematically) was determined using the phosphocellulose paper assay. The reaction contained 20 mM Tris-HCl (pH 7.4), 10 mM MgCl2, 0.2 mM ATP, 30 µM peptide, and [γ-^32P]-ATP. […] Incorporation of ^32P into the peptides was determined by scintillation counting.
# [9] = test system: FLAG-tagged wild-type HMTK1; assay: Pulldown of FLAG-tagged wild-type HMTK1 from SYF cell lysates with immobilized peptides; type: binding, Monosiga brevicollis; settings: immobilized peptide; anti-FLAG Western; Fig. 3C
# Experimental: For expression in insect cells, HMTK1 DNA (encoding residues 341–761) was cloned into the EcoRI site of pFastbac-Hta (Invitrogen). FLAG-tagged HMTK1 was expressed in mammalian cells by subcloning into the BglII and BamHI sites of p3XFLAG-CMV (Sigma). The ΔPTB version of this construct was prepared by PCR amplification and subsequent recloning into the BamHI and EcoRI sites of p3XFLAG-CMV. Site-directed mutagenesis of FLAG-HMTK1 was carried out using the QuikChange kit (Stratagene). To express the isolated third PTB domain (residues 341–474) in bacterial cells, this PCR fragment was cloned into the EcoRI site of plasmid pGEX-4T-1 (GE Healthcare). All constructs were confirmed by DNA sequencing.
# The PTB ligand-containing peptide, Phe-containing PTB control, and pYEEI peptide (EPQpYEEIG) were linked to Affi-Gel 15 resin (Bio-Rad) following the manufacturer's protocols. Purified HMTK1 or the isolated PTB domain were incubated for 1 hour at 4°C with the immobilized peptides. […]
# Figure 3 Binding reactions with pYEEI-containing peptide. […] Bound proteins were eluted with SDS-PAGE sample buffer and analyzed by gel electrophoresis with Coomassie blue staining. […] After washing, bound proteins were eluted with SDS-PAGE sample buffer and analyzed by Western blotting with anti-GST antibody. […] After washing, bound proteins were analyzed by anti-FLAG Western blotting. […]
# Chain of SH2 binding substrate, spacer = 11 (…pYEEIG) (peptide, as listed by the source): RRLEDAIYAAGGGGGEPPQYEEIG
# Chain of PTB ligand-containing substrate (…pYATLG) (peptide, as listed by the source): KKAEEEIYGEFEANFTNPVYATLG
substance,measurement,setting,value
IGF1R: mammalian receptor tyrosine kinase,binding or phosphorylation by co-expressed HMTK1,HMTK1 [1],failed to bind or phosphorylate
ErbB2: mammalian receptor tyrosine kinase,binding or phosphorylation by co-expressed HMTK1,HMTK1 [1],failed to bind or phosphorylate
His-tagged HMTK1 PTB-kinase construct (residues 341-761) (enzyme),other,[2],5 fold
same,"Km of peptide phosphorylation by HMTK1 (continuous spectrophotometric assay, 30°C)",[3],450 µM
same,"Km of peptide phosphorylation by HMTK1 (continuous spectrophotometric assay, 30°C)",[4],33 µM
SEEVYGAVVDKKK [RTKB2 peptide 1],HMTK1 activity toward peptide (comparison of c-Src and Monosiga-derived peptides),HMTK1 [5],roughly equivalent activity
same,MbSrc1 activity compared with the c-Src peptide,MbSrc1,substantially higher activities
same,MbSrc4 activity compared with the c-Src peptide,MbSrc4,substantially higher activities
RRLEDAIYAAGGGGGEPPQpYEEIG [SH2-binding substrate],phosphorylation relative to control sequence lacking phosphotyrosine,HMTK1 [6],5 fold
same,phosphorylation relative to shortened peptide containing only the substrate motif,HMTK1 [6],5 fold
"AEEEIYGEFEAKKKG [c-Src peptide, acidophilic Src peptide, reference compound]",HMTK1 activity toward peptide (comparison of c-Src and Monosiga-derived peptides),HMTK1 [5],roughly equivalent activity
same,phosphorylation of peptide by HMTK1,"HMTK1 [5]; 32P-labeled ATP, 500 µM peptide, 20 mM Tris-HCl pH 7.4, 10 mM MgCl2, 0.2 mM ATP, Fig. 1C",phosphorylated this peptide efficiently
"KKAEEEIYGEFEANFTNPVFATLG [Phe peptide, control peptide in which the pTyr residue was replaced with Phe]",Km,HMTK1 [7],450 µM
same,binding to purified HMTK1,HMTK1 [8],undetectable
AEEVYEAIADKKK [RTKB2 peptide 2],HMTK1 activity toward peptide (comparison of c-Src and Monosiga-derived peptides),HMTK1 [5],highest activity
same,MbSrc1 activity compared with the c-Src peptide,MbSrc1,substantially higher activities
same,MbSrc4 activity compared with the c-Src peptide,MbSrc4,substantially higher activities
"LRRApSLG [phospho-Kemptide, immobilized phosphoserine-containing peptide]",binding to wild-type HMTK1 (SYF lysate),[9],failed to bind
"KKKASGYVMADIA [MbSTAT peptide, from a putative M. brevicollis STAT]",HMTK1 activity toward peptide (comparison of c-Src and Monosiga-derived peptides),HMTK1 [5],no significant activity
